# Test results from patent US20260125371A1, “METHOD FOR INHIBITING CLOSTRIDIOIDES DIFFICILE SPORE GERMINATION” (UNIVERSITY OF NOTRE DAME DU LAC, priority 2022, published 2026).
# Where two headings read alike, the source gives them in different places.
# How the values were obtained:
# [1] = tested on: C. difficile strains; details: cited from earlier work
# [2] = tested on: Bacteroides fragilis HM-709; details: cited from earlier work
# [3] = tested on: Eubacterium sp. HM-178; details: cited from earlier work
# [4] = tested on: Bifidobacterium longum HM-846; details: cited from earlier work
# [5] = tested on: S. aureus; experiment: MIC against S. aureus strains; assay type: cell-based; details: Staphylococcus aureus, ATCC29213, 24 h, S. aureus ATCC 29213, 24 h; read-out: MIC (μg/mL) 24 h
# [6] = tested on: THP-1 cells; experiment: Lactate dehydrogenase (LDH) cytotoxicity assay; assay type: cell-based, human; details: Homo sapiens, THP-1 cells
# [7] = tested on: Fusobacterium nucleatum HM-992; details: cited from earlier work
# [8] = tested on: Veillonella sp. HM-49; details: cited from earlier work
# [9] = tested on: C. difficile ATCC 43255; experiment: Determination of minimal-inhibitory concentrations (microdilution), C. difficile ATCC 43255; assay type: cell-based, Clostridioides difficile; details: Clostridioides difficile
# [10] = C. difficile strains of Table 4
structure (smiles),measurement,setting,value
FC(F)(F)c1ccc(Oc2ccc(-c3noc(-c4ccc5[nH]ccc5c4)n3)cc2)cc1 [Compound 1],IMIC50 (101 strains),[1]; 101 C. difficile strains,4 µg/mL
same,MIC90 (101 strains),[1]; 101 C. difficile strains,8 µg/mL
same,MIC,"[1]; C. difficile 23828, resistant to FDX",4 µg/mL
same,MIC,"[1]; C. difficile 24531, resistant to VAN",4 µg/mL
same,MIC,"[1]; C. difficile 26675, resistant to MTZ",4 µg/mL
same,MIC,[1]; C. difficile BAA-1803,2 µg/mL
same,MIC,[1]; C. difficile BAA-1870,4 µg/mL
same,MIC,[1]; C. difficile NR49292,2 µg/mL
same,MIC,[1]; C. difficile NR49294,1 µg/mL
same,MIC,[1]; C. difficile NR49302,2 µg/mL
same,MIC,[1]; C. difficile NR49305,4 µg/mL
same,MIC,[1]; C. difficile NR49310,2 µg/mL
same,MIC,[1]; C. difficile NR49318,2 µg/mL
same,MIC50,[1]; [10],4 µg/mL
same,MIC90,[1]; [10],8 µg/mL
same,MIC,[1]; strain ATCC43598,1 µg/mL
same,MIC,[1]; strain BAA-1801,4 µg/mL
same,MIC,[1]; strain BAA-1803,2 µg/mL
same,MIC,[1]; strain BAA-1804,2 µg/mL
same,MIC,[1]; strain BAA-1812,2 µg/mL
same,MIC,[1]; strain BAA-1814,4 µg/mL
same,MIC,[1]; strain BAA-1870,4 µg/mL
same,MIC,[1]; strain HM-88,8 µg/mL
same,MIC,[1]; strain HM-89,8 µg/mL
same,MIC,[1]; strain HM-745,8 µg/mL
same,MIC,[1]; strain HM-746,4 µg/mL
same,MIC,[1]; strain HM-747,8 µg/mL
same,MIC,[1]; strain NR49292,2 µg/mL
same,MIC,[1]; strain NR49294,1 µg/mL
same,MIC,[1]; strain NR49302,2 µg/mL
same,MIC,[1]; strain NR49305,4 µg/mL
same,MIC,[1]; strain NR49310,2 µg/mL
same,MIC,[1]; strain NR49318,2 µg/mL
same,MIC,[1]; strain NR-13427,4 µg/mL
same,MIC,[1]; strain NR-13428,8 µg/mL
same,MIC,[1]; strain NR-13429,8 µg/mL
same,MIC,[1]; strain NR-13430,8 µg/mL
same,MIC,[1]; strain NR-13431,4 µg/mL
same,MIC,[1]; strain NR-13433,4 µg/mL
same,MIC,[1]; strain NR-13434,4 µg/mL
same,MIC,[1]; strain NR-13435,4 µg/mL
same,MIC,[1]; strain NR-13436,8 µg/mL
same,MIC,[1]; strain NR-13437,8 µg/mL
same,MIC,[1]; strain NR-13438,4 µg/mL
same,MIC,[1]; strain NR-13553,4 µg/mL
same,MIC,[1]; strain NR-32882,4 µg/mL
same,MIC,[1]; strain NR-32883,4 µg/mL
same,MIC,[1]; strain NR-32884,4 µg/mL
same,MIC,[1]; strain NR-32885,8 µg/mL
same,MIC,[1]; strain NR-32886,4 µg/mL
same,MIC,[1]; strain NR-32887,8 µg/mL
same,MIC,[1]; strain NR-32888,8 µg/mL
same,MIC,[1]; strain NR-32889,4 µg/mL
same,MIC,[1]; strain NR-32890,4 µg/mL
same,MIC,[1]; strain NR-32891,8 µg/mL
same,MIC,[1]; strain NR-32892,4 µg/mL
same,MIC,[1]; strain NR-32895,2 µg/mL
same,MIC,[1]; strain NR-32896,2 µg/mL
same,MIC,[1]; strain NR-32897,8 µg/mL
same,MIC,[1]; strain NR-32900,8 µg/mL
same,MIC,[1]; strain NR-32903,8 µg/mL
same,MIC,[1]; strain NR-32904,4 µg/mL
same,MIC,[1]; strain NR-49277,4 µg/mL
same,MIC,[1]; strain NR-49278,4 µg/mL
same,MIC,[1]; strain NR-49279,4 µg/mL
same,MIC,[1]; strain NR-49280,8 µg/mL
same,MIC,[1]; strain NR-49281,4 µg/mL
same,MIC,[1]; strain NR-49282,8 µg/mL
same,MIC,[1]; strain NR-49283,8 µg/mL
same,MIC,[1]; strain NR-49284,8 µg/mL
same,MIC,[1]; strain NR-49285,4 µg/mL
same,MIC,[1]; strain NR-49286,4 µg/mL
same,MIC,[1]; strain NR-49287,4 µg/mL
same,MIC,[1]; strain NR-49288,4 µg/mL
same,MIC,[1]; strain NR-49289,8 µg/mL
same,MIC,[1]; strain NR-49290,8 µg/mL
same,MIC,[1]; strain NR-49291,8 µg/mL
same,MIC,[1]; strain NR-49293,4 µg/mL
same,MIC,[1]; strain NR-49295,4 µg/mL
same,MIC,[1]; strain NR-49296,4 µg/mL
same,MIC,[1]; strain NR-49297,4 µg/mL
same,MIC,[1]; strain NR-49298,4 µg/mL
same,MIC,[1]; strain NR-49299,4 µg/mL
same,MIC,[1]; strain NR-49300,4 µg/mL
same,MIC,[1]; strain NR-49301,4 µg/mL
same,MIC,[1]; strain NR-49303,4 µg/mL
same,MIC,[1]; strain NR-49304,4 µg/mL
same,MIC,[1]; strain NR-49306,4 µg/mL
same,MIC,[1]; strain NR-49307,4 µg/mL
same,MIC,[1]; strain NR-49308,8 µg/mL
same,MIC,[1]; strain NR-49309,4 µg/mL
same,MIC,[1]; strain NR-49311,4 µg/mL
same,MIC,[1]; strain NR-49312,8 µg/mL
same,MIC,[1]; strain NR-49313,4 µg/mL
same,MIC,[1]; strain NR-49314,4 µg/mL
same,MIC,[1]; strain NR-49315,4 µg/mL
same,MIC,[1]; strain NR-49316,4 µg/mL
same,MIC,[1]; strain NR-49317,8 µg/mL
same,MIC,[1]; strain NR-49319,8 µg/mL
same,MIC,[1]; strain NR-49320,4 µg/mL
same,MIC,[1]; strain NR-49321,8 µg/mL
same,MIC,[1]; strain NR-49323,8 µg/mL
same,MIC,[1]; strain NR-49324,8 µg/mL
same,MIC,[1]; strain NR-49325,8 µg/mL
same,MIC,[1]; strain NR-49326,4 µg/mL
same,MIC,[1]; strain NR-49327,4 µg/mL
same,MIC,[1]; strain NR-49328,4 µg/mL
same,MIC,[1]; strain NR-49329,4 µg/mL
same,MIC,[1]; strain RMA23691,4 µg/mL
same,MIC,[1]; strain RMA23828,4 µg/mL
same,MIC,[1]; strain RMA24531,4 µg/mL
same,MIC,[1]; strain RMA24923,4 µg/mL
same,MIC,[1]; strain RMA26675,4 µg/mL
same,MIC,[1]; strain RMA27081,2 µg/mL
same,MIC,[1]; strain RMA27173,4 µg/mL
same,MIC,[2],4 µg/mL
same,MIC,[3],2 µg/mL
same,MIC,[4],0.25 µg/mL
same,MIC,[5],4 µg/mL
same,IC50,"[6]; 24 h, read-out: LDH (IC50)",69 ± 6 µg/mL
same,IC50,[6]; read-out: toxicity IC50 (LDH assay),> 50 µg/mL
same,MIC,[7],1 µg/mL
same,MIC,[8],>128 µg/mL
same,MIC,"[9]; ATCC43255, 24 h, C. difficile ATCC 43255, 24 h, read-out: MIC (μg/mL) 24 h",2 µg/mL
same,MIC,"[9]; ATCC43255, Table 1, strain ATCC 43255, read-out: MIC C. difficile",4 µg/mL
